The values that follow come from article PMC12042122, “The GntR/VanR transcription regulator AlkR represses AlkB2 monooxygenase expression and regulates n‐alkane degradation in Pseudomonas aeruginosa SJTD‐1” (mLife, 2025).

The target in assay [1] is T1, AlkR (Pseudomonas aeruginosa, UniProt Q9I3I7).
T1 construct: gene PA1526
T1 sequence (Q9I3I7 1-219): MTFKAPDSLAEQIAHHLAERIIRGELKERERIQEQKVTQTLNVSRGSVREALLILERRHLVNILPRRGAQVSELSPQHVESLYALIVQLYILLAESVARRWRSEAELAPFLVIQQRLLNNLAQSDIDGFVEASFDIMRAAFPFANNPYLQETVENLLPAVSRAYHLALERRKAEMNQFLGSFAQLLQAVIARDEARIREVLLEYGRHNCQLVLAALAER
Kind of assay: EMSA, release of AlkR from alkB2 promoter DNA. The conditions noted are these: AlkR 5.8 × 10^-7 M, P3 DNA fragment 5 × 10^-7 M, pH 7.5, 37 °C; not an IC50. It counts as binding. On the technique in general: In EMSA bound probe runs differently from free probe, usually more slowly.

Assay [2] has as its target AlkR, GntR/VanR transcription regulator of Pseudomonas aeruginosa SJTD-1 (Pseudomonas aeruginosa SJTD-1). The experiment in a line: cross-linking; purified recombinant AlkR treated with sulfo-EGS, detected by 8% native PAGE.
Assay [3] has the same target. Kind of assay: SEC; size exclusion chromatography of purified recombinant AlkR; conditions not given. On the technique in general: Size exclusion chromatography separates by hydrodynamic size, large species first.

For `CCCCCCCCCCCCCCCC(=O)SCCNC(=O)CCNC(=O)[C@H](O)C(C)(C)COP(=O)(O)OP(=O)(O)OC[C@H]1O[C@@H](n2cnc3c(N)ncnc32)[C@H](O)[C@@H]1OP(=O)(O)O` [C16-CoA, palmitoyl coenzyme A], the “concentration for effective dissociation of the AlkR/DNA complex” value in assay [1] is ~ 150 μM.
As to `CCCCCCCC/C=C\CCCCCCCC(=O)SCCNC(=O)CCNC(=O)[C@H](O)C(C)(C)COP(=O)(O)OP(=O)(O)OC[C@H]1O[C@@H](n2cnc3c(N)ncnc32)[C@H](O)[C@@H]1OP(=O)(O)O` [C18-CoA, oleyl coenzyme A], the “concentration for effective dissociation of the AlkR/DNA complex” value in assay [1] was ~ 80 μM.
One may read the stoichiometry N as the number of molecules, sites or subunits per partner or assembly. Take “AlkR, GntR/VanR transcription regulator of Pseudomonas aeruginosa SJTD-1 (natural protein)”: the stoichiometry N in assay [2] and in assay [3] was 2 in each case.
